Assay results: US7109176B2, “Nonsteroidal anti-inflammatory substances, compositions and methods for their use” (Pliva-Istrazivacki Institut D.o.o., priority 2002, dated 2006)

Tests used:
[1] = test system: TNF-α; experiment: Determination of TNF-α secretion in LPS-stimulated mononuclear cells of human peripheral blood in vitro (ELISA); type: cell-based; conditions: human PBMC, LPS 1 μg/mL, 18 to 24 hours, TNF-α in supernatant by ELISA
Protocol: Determination of TNF-α and IL-1β Secretion in Mononuclear Cells of Human Peripheral Blood In Vitro
Peripheral blood mononuclear cells (PMBC) were prepared from heparinized whole blood after separation of PMBC on Ficoll-Hypaque (Amersham-Pharmacia). For the determination of TNF-α level, 3.5-5×10^4 cells were cultured in a total volume of 200 μl within a period of 18 to 24 hours on microtiter flat bottom plates (96 wells, Falcon) in RPMI 1640 medium supplemented with 10% of heat-inactivated human AB serum (Croatian Centre For Transfusion Medicine, Zagreb), 100 units/mL of penicillin, […] and 20 mM HEPES (Invitrogen Life Technologies). The cells were incubated at 37° C. in an atmosphere with 5% CO2 and 90% moisture. The cells in a negative control were cultured only in the medium (NC), while the secretion of TNF-α in a positive control was stimulated by the addition of 1 μg/mL lipopolysaccharide (LPS, E. coli serotype 0111:B4, SIGMA) (PC) and the effect of the tested substances on TNF-α secretion was tested after their addition to cell cultures stimulated with LPS (TS). […] The test sensitivity was <3 pg/mL TNF-α. The determination of IL-1β level was performed as described for TNF-α determination, only that 1×10^5 cells/well and 0.1 ng/mL of LPS were used. IL-1β level was determined by ELISA (R&D Systems). […] IC-50 was calculated using Graph Pad Prism Software. Determination of TNF-α Secretion by RAW 264.7 Cells

[2] = target: T1, Human Prostaglandin-H Synthase—1 (hPGH-1) (Homo sapiens, UniProt P23219); experiment: Human prostaglandin-H synthase-1 (hPGH-1) inhibition assay in transfected COS-7 cells (PGE-2 readout); type: cell-based; conditions: COS-7 cells transfected with hPGH-1, arachidonic acid 20 μM, PGE-2 measured
T1 construct: expressed in transfected cells; host or cells: COS-7 cells (ATCC), transient transfection with Lipofectamine 2000
T1 sequence (P23219 24-599): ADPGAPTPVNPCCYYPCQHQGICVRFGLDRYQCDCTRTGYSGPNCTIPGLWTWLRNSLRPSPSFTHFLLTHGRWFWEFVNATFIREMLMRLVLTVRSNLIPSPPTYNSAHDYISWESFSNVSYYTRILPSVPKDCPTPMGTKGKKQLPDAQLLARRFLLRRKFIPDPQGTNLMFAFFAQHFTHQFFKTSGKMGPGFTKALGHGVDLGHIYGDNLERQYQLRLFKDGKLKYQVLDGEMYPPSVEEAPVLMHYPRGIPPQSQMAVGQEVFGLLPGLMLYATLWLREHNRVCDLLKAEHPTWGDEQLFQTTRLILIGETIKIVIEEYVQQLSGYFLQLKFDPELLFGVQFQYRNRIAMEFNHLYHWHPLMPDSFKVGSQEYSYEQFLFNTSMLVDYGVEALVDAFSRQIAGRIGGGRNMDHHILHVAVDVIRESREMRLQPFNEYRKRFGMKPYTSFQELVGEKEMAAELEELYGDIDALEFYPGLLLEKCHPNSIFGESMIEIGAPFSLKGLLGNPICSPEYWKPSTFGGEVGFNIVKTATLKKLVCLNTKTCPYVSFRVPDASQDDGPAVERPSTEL
Protocol: (§1) The cells were grown in 10% fetal bovine serum (FBS) in DMEM medium (Invitrogen Life Technologies) at 37° C. in an atmosphere with 5% CO2 and 90% moisture. 20 000 cells/well were plated in 96 well plate (Falcon). The cells in a negative control were cultured only in the medium (NC), while the secretion of TNF-α in a positive control was stimulated by the addition of 500 pg/mL lipopolysaccharide (LPS, E. coli serotype 0111:B4, SIGMA) (PC) and the effect of the tested substances on TNF-α secretion was tested after their addition to cell cultures stimulated with LPS (TS). […] Human Prostaglandin-H Synthase—1 (hPGH-1) and Human Prostaglandin-H Synthase—2 (hPGH-2) Inhibition Assay
(§2) Genes coding hPGH-1 and hPGH-2 were amplified with PCR using Platinum pfx DNA polymerase (Invitrogen Life Technologies) from human placenta cDNA library (Stratagene). Primer sequences used for hPGH-1 are: • 5′ […] 3′ (SEQ ID NO: 1) and • 5′ […] 3′ (SEQ ID NO: 2); for hPGH-2 • 5′ […] 3′ (SEQ ID NO: 3) and • 5′ […] 3′ (SEQ ID NO: 4). PCR products were cloned into HindIII and BamHI restriction sites of pcDNA3.1 (Hygro(+) plasmid (Invitrogen Life Technologies), sequences were confirmed by sequencing.
(§3) Transfection was performed on COS-7 cells (ATCC), cells were grown in 10% foetal bovine serum (FBS) in DMEM medium (Invitrogen Life Tecnologies), 37° C. in an atmosphere with 5% CO2 and 90% moisture, to full confluency in 24 well plate (Falcon). 1 μg plasmid DNA (pcDNA Hygro 3.1 (+) containing PGH-1 or PGH-2 gene, or pcDNA Hygro 3.1 (+) for negative control samples) was combined with 1,5 μl Lipofectamine 2000 (Invitrogen Life Technologies), following manufacturer's recommendations. […] After 30 minutes supernatants were removed and PGE-2 was measured with PGE-2 assay kit (Cayman) following manufacturer's instructions.
(§4) % inhibition was calculated by the following equation: % inhibition=(1−sample PGE-2 concentration/positive control PGE-2 concentration)*100 In Vivo Model of LPS-Induced Exccessive Secretion of TNF-α in Mice

[3] = test system: TNF-α; experiment: In vivo model of LPS-induced excessive secretion of TNF-α in mice; conditions: male BALB/c mice, substance p.o. 30 minutes prior to i.p. LPS 25 μg/animal, plasma TNF-α two hours later; dose not given
Protocol: as §4
TNF-α secretion in mice was induced according to the previously described method (Badger A. M. Et al., J. of Pharmac. and Env. Therap. 279 1996 1453-1461). In the test, male BALB/c mice at an age of 8 to 12 weeks in groups of 6 to 10 animals were used. Animals were treated p.o. either only with the solvent (in a negative and a positive control) or with solutions of the substance 30 minutes prior to the i.p. treatment with LPS (E. coli serotype 0111:B4, Sigma) in a dose of 25 μg/animal. Two hours later the animals were euthanized by means of i.p. injection of Roumpun (Bayer) and Ketanest (Park-Davis). […] The TNF-α level in the plasma was determined by ELISA (Biosource, R&D Systems) according to the process prescribed by the manufacturer. The test sensitivity was <3 pg/mL TNF-α. The percentage inhibition of TNF-α production was calculated by the following equation: % inhibition=[1−(TS—NC)/(PC—NC)]*100

[4] = target: T2, Human Prostaglandin-H Synthase—2 (hPGH-2) (Homo sapiens, UniProt P35354); experiment: Human prostaglandin-H synthase-2 (hPGH-2) inhibition assay in transfected COS-7 cells (PGE-2 readout); type: cell-based; conditions: COS-7 cells transfected with hPGH-2, arachidonic acid 20 μM, PGE-2 measured
T2 construct: expressed in transfected cells; host or cells: COS-7 cells (ATCC), transient transfection with Lipofectamine 2000
T2 sequence (P35354 18-604): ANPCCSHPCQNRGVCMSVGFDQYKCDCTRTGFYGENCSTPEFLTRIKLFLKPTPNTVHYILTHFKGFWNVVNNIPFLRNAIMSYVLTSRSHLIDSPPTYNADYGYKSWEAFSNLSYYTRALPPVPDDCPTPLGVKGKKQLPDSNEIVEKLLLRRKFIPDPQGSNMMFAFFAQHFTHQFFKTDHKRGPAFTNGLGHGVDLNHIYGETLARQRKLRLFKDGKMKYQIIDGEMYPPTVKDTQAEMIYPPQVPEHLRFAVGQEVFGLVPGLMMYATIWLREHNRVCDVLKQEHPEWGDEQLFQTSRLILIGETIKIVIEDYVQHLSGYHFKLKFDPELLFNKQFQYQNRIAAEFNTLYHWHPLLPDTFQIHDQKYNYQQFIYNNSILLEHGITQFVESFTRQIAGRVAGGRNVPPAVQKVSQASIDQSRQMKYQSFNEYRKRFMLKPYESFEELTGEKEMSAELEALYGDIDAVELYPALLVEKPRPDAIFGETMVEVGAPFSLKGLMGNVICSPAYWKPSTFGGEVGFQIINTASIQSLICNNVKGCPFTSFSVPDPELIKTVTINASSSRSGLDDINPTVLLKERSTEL
Protocol: as §1, §2, §3, §4

IC50 [1] | IC50 [2] | IC50 [4] | Structure (SMILES) | LPS induced excessive secretion of TNF-α % of inhibition [3]
1 µM | > 30 µM | 1 µM | CC[C@H]1OC(=O)[C@H](C)[C@@H](O[C@H]2C[C@@](C)(OC)[C@@H](O)[C@H](C)O2)[C@H](C)[C@@H](O[C@@H]2O[C@H](C)C[C@H](N(C)C)[C@H]2O)[C@](C)(O)C[C@@H](C)CN(CCCNC(=O)Cc2c(C)n(C(=O)c3ccc(Cl)cc3)c3ccc(OC)cc23)[C@H](C)[C@@H](O)[C@]1(C)O [Ex. 4] | 70%
1 µM | 10 µM | 10 µM | CC[C@H]1OC(=O)[C@H](C)[C@@H](O[C@H]2C[C@@](C)(OC)[C@@H](O)[C@H](C)O2)[C@H](C)[C@@H](O[C@@H]2O[C@H](C)C[C@H](N(C)C)[C@H]2O)[C@](C)(O)C[C@@H](C)CN(CCCNC(=O)[C@@H](C)c2ccc(CC(C)C)cc2)[C@H](C)[C@@H](O)[C@]1(C)O [Ex. 5] | 66%
10 µM | > 30 µM | > 30 µM | CC[C@H]1OC(=O)[C@H](C)[C@@H](O)[C@H](C)[C@@H](O[C@@H]2O[C@H](C)C[C@H](N(C)C)[C@H]2O)[C@](C)(O)C[C@@H](C)CN(CCCNC(=O)Cc2c(C)n(C(=O)c3ccc(Cl)cc3)c3ccc(OC)cc23)[C@H](C)[C@@H](O)[C@]1(C)O [Ex. 10] | 47%
> 30 µM |  |  | CC(C)Cc1ccc([C@@H](C)C(=O)O)cc1 [S-(+)-Ibuprofen, S-(+)-ibuprofen, reference compound] | 
